From paper PMC10214525, “A Turn-On Fluorescent Amino Acid Sensor Reveals Chloroquine’s Effect on Cellular Amino Acids via Inhibiting Cathepsin L” (ACS Central Science, 2023)

Key:
[1] = biological target: T1, NPC2 (Homo sapiens, UniProt P61916); experiment: competition (chase) of CQ-X photo-cross-linking in cells; type: cell-based
T1 construct: endogenous, A549 cells
T1 sequence (P61916 20-151): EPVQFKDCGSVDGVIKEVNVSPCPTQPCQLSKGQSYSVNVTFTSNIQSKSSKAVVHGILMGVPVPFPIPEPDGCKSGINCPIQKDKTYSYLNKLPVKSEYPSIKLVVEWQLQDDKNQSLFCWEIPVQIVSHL

[2] = biological target: T2, Cathepsin L (CTSL) (Homo sapiens, UniProt P07711); experiment: Z-FR-AMC fluorogenic cleavage assay, pH […]; supported by intrinsic fluorescence of CTSL-Flag and CQ-X chase; type: biochemical
T2 construct: commercial purified CTSL (BPS Biosciences kit); CTSL-Flag-Myc purified from HEK-293T for intrinsic fluorescence
T2 sequence (P07711 114-288): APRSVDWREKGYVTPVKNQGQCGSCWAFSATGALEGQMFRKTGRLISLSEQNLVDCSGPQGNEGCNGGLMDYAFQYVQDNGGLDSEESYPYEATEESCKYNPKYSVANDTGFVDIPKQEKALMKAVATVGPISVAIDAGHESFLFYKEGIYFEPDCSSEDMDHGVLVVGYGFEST
T2 sequence (P07711 292-333): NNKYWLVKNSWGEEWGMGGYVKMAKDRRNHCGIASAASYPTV

## CCN(CC)CCCC(C)Nc1ccnc2cc(Cl)ccc12 (centres unmarked) [CQ, chloroquine]
[1]
  competition (chase) of CQ-X photo-cross-linking in cells: The results confirmed that chloroquine could bind to NPC2 and CTSL.
[2]
  IC50: 181 µM
